Values after ≈ are worked out from the molar mass of the structure shown. Read-outs that look alike come from different tables or passages of the source.
Key:
[1] = tested on: C. glabrata (ATCC 2001); assay: Secondary C. glabrata inhibition in glucose media (OD600); format: cell-based, Candida glabrata; conditions: for IC50: read-out: Growth Inhibition Activity, IC50 (μM), C. glabrata (n = 3) On glucose
Text: (§1) Cell Lines. • Candida albicans CaCi-2; a drug-resistant clinical isolate was provided by the Whitehead Institute (Redding et al., Clin. Infect. Dis. 1994, 18(2):240-2). This strain was used for the primary assay. • Candida albicans CaCi-17; a strongly drug-resistant clinical isolate was provided by the Whitehead Institute (Redding et al., Clin. Infect. Dis. 1994, 18(2):240-2). This strain was used for the primary assay • Saccharyomyces cerevisiae W303-1a (ATCC 208352); a well-characterized Saccharomyces strain used for determination of glycolytic vs. respiratory metabolism, as well as in the mitochondrial disruption assay. • Candida glabrata (ATCC 2001); used for determination of glycolytic vs. respiratory metabolism. • NIH-3T3 mammalian fibroblasts (ATCC; CRL no.1658); used for mammalian toxicity assays. […]
(§2) Saccharomyces, while not a major human pathogen, is a useful lab model with well-developed genetic tools available. Candida glabrata is an increasingly prominent clinical problem for immune-compromised patients but with fewer genetic tools available with which to study it. These organisms can utilize alternative metabolic pathways to support growth and survival depending on the carbon source. By comparing the concentration-dependent inhibition of yeast growth in glycerol relative to glucose media, a quantitative assessment of a compound's ability to disrupt respiration can be determined. […].
(§3) Procedures • Use a Thermo Combi nL to dispense 20 μL/well of assay media into all wells. • Add 2 μL of Amphotericin B to control wells. • Pin 100 nL of test compound from compound plates into assay plates using a CyBi-Well pin tool. • Dispense 20 μL/well of culture into the assay media in all wells. • Incubate the plates in a humidified (90% humidity) Liconic incubator at 37° C. without agitation for 48 hours. • Shake plates briefly. • Read OD600 of wells on a standard plate reader as measure of relative fungal growth. Envision (Perkin Elmer) plate reader settings: Ex Photometric 600, Top read. Secondary Glucose Assay Protocol (AID 623971, 623967, 624013, 624025) Materials and Reagents
(§4) Clear, flat bottom, black 384-well plates (Corning, Catalog No. 3712BC; Lot No. 35808016); Amphotericin B (Sigma, Catalog no. A2411) 15 mM stock solution in DMSO; Pen/Strep (Gibco, Catalog No. 10378-016; Lot no21040170) 100× in PBS.
(§5) Synthetic defined growth medium. Complete Supplement Mixture; (Sunrise Science, Catalog No. 1001-100); Yeast Nitrogen Base without ammonium sulfate (MP Biomedicals, Catalog No. 4027-012); Glucose (Sigma, Catalog No. G7021). • Prepare medium by dissolving 0.79 g of Complete Supplement Mixture and 1.7 g of Yeast Nitrogen Base in 800 mL of water. • Add 20 g of glucose. Adjust final volume to 1000 mL. Filter sterilize.
(§6) Fungal Inoculum. Test Strains: C. glabrata (ATCC 2001) and Saccharomyces cerevisiae W303. • Inoculate 100 L of yeast from cryopreserved stock into a 250 mL shaker flask containing 20 mL of growth medium. Shake at 30° C. overnight (about 16 hours). • Read OD 600 of 1 mL of fungal culture in a cuvette using a standard optical density reader (Eppendorf BioPhotometer Plus), with growth medium as a background blank. • Dilute to desired volume of fungal inoculum to produce an OD600 reading of 0.005 (S. cerevisiae) or 0.004 (C. glabrata).
as §3, with “read. 4.5.” for “read.”, “Mitochondrial Disruption” for “Glucose”, “Assay” for “Assay Protocol”, “No. 624062” for “623971, 623967, 624013, 624025) Materials”, “624068)” for “Reagents”

[2] = tested on: C. glabrata (ATCC 2001); assay: Secondary C. glabrata inhibition in glycerol media (OD600); format: cell-based, Candida glabrata; conditions: for IC50: read-out: Growth Inhibition Activity, IC50 (μM), C. glabrata (n = 3) On glycerol
Text: as §1, §2
(§7) Clear, flat bottom, black 384-well plates (Corning Catalog no. 3712BC; Lot no. 35808016); Amphotericin B (Sigma Catalog no. A2411) 15 mM stock solution in DMSO; Pen/Strep (Gibco Catalog no. 10378-016; Lot no21040170) 100× in PBS.
as §5, with “4027-012); Glycerol (Sigma” for “4027-012); Glucose (Sigma,”, “No. G-9012).” for “No. G7021).”, “g” for “g of”, “mL” for “mL of”, “20 mL” for “20 g”, “of glycerol.” for “of glucose.”
as §6, with “Inoculate 100 μL of yeast” for “Inoculate 100 L of yeast”, “stock into 250 mL” for “stock into a 250 mL”, “20 mL growth medium.” for “20 mL of growth medium.”
as §3

[3] = tested on: Saccharomyces cerevisiae W303; assay: Secondary S. cerevisiae inhibition in glycerol media (OD600); format: cell-based; conditions: for IC50: read-out: Growth Inhibition Activity, IC50 (μM), S. cerevisiae (n = 3) On glycerol
Text: as §1, §2, §7
as §5, with “4027-012); Glycerol (Sigma” for “4027-012); Glucose (Sigma,”, “No. G-9012).” for “No. G7021).”, “g” for “g of”, “mL” for “mL of”, “20 mL” for “20 g”, “of glycerol.” for “of glucose.”
as §6, with “Inoculate 100 μL of yeast” for “Inoculate 100 L of yeast”, “stock into 250 mL” for “stock into a 250 mL”, “20 mL growth medium.” for “20 mL of growth medium.”
as §3

[4] = tested on: Saccharomyces cerevisiae W303; assay: Secondary S. cerevisiae inhibition in glucose media (OD600); format: cell-based; conditions: for IC50: read-out: Growth Inhibition Activity, IC50 (μM), S. cerevisiae (n = 3) On glucose
Text: as §1, §2, §3, §4, §5, §6
as §3, with “read. 4.5.” for “read.”, “Mitochondrial Disruption” for “Glucose”, “Assay” for “Assay Protocol”, “No. 624062” for “623971, 623967, 624013, 624025) Materials”, “624068)” for “Reagents”

[5] = tested on: Candida albicans CaCi-17; assay: Primary assay: C. albicans CaCi-17 growth inhibition (Alamar Blue); format: cell-based; conditions: Candida albicans, read-out: Growth Inhibition Activity, IC50 (μM), C. albicans (n = 3) CaCi-17
[6] = tested on: Candida albicans CaCi-2; assay: Primary assay: C. albicans CaCi-2 growth inhibition (Alamar Blue); format: cell-based; as to Growth Inhibition Activity, IC50 (μM), C. albicans CaCi-2, values marked ‡: less than 0.10 µM in AID 623899
[7] = tested on: NIH-3T3 mammalian fibroblasts; assay: Counterscreen mammalian cell toxicity assay (Alamar Blue); format: cell-based, murine; conditions: for Growth Inhibition Activity, IC50 (μM), 3T3 Fibroblasts (n = 1): Table 4, 48 hours, tested up to 26 μM
Protocol: Quiescent murine fibroblasts were subjected to incubation with compounds of interest for 48 hours. Subsequent cell viability was determined via measuring Alamar Blue fluorescence.
Procedures • After overnight culture, pin compounds into wells at 100 nL/well using the CyBio CyBi-Well pinning instrument. • Return the plates to the tissue culture incubator and incubate the culture for an additional 48 hours at 37° C. under 5% CO2. • At the completion of this incubation, add Alamar Blue solution diluted 1:40 in PBS to each well (10 μL/well) to achieve a final dilution of 1:200. • Incubate the plates for an additional 2-3 hours at 37° C. under 5% CO2. • Read the Relative Fluorescence Intensity (RFU) of wells on a standard plate reader as a measure of relative cell growth. […] 4.4.

[8] = Solubility in PBS pH 7.4 with 1% DMSO; conditions: for solubility at 24 h: phosphate buffered saline with 1% DMSO, pH 7.4, aqueous buffer, kinetic from dmso stock
Protocol: Solubility was determined in phosphate buffered saline (PBS) pH 7.4 with 1% DMSO. Each compound was prepared in duplicate at 100 μM in both 100% DMSO and PBS with 1% DMSO. Compounds were allowed to equilibrate at room temperature with a 250 rpm orbital shake for 24 hours. After equilibration, samples were analyzed by UPLC-MS (Waters, Milford, Mass.) with compounds detected by SIR detection on a single quadrupole mass spectrometer. The DMSO samples were used to create a two-point calibration curve to which the response in PBS was fit.

[9] = Table 8, n = 3, glucose media, 48 hours, tested up to 3 μM
[10] = Table 8, n = 3, glycerol media, 48 hours, tested up to 3 μM
[11] = Nakaseomyces glabratus, ATCC2001, 48 h
[12] = Saccharomyces cerevisiae, W303, 48 h
[13] = Nakaseomyces glabratus, ATCC2001, Table 8, n = 3, glucose media, 48 hours, tested up to 3 μM
[14] = Nakaseomyces glabratus, ATCC2001, Table 8, n = 3, glycerol media, 48 hours, tested up to 3 μM
[15] = Saccharomyces cerevisiae, W303, Table 8, n = 3, glycerol media, 48 hours, tested up to 3 μM
[16] = CACI17, Table 4, n = 3, 48 hours, tested up to 26 μM
[17] = Candida albicans, CACI2; read-out: Growth Inhibition Activity, IC50 (μM), C. albicans CaCi-2, values marked ‡
[18] = Saccharomyces cerevisiae, W303, Table 8, n = 3, glucose media, 48 hours, tested up to 3 μM

| Structure (SMILES) | IC50 [1, 11] | IC50 [2, 11] | IC50 [3, 12] | IC50 ([5]; CACI17, 48 h) | IC50 [4, 12] | Growth Inhibition Activity, IC50 (μM), 3T3 Fibroblasts (n = 1) [7] | solubility at 24 h [8] | IC50 [1, 13] | IC50 [2, 14] | IC50 [3, 15] | IC50 [5, 16] | IC50 [6, 17] | IC50 [4, 18] | also measured |
| --- | --- | --- | --- | --- | --- | --- | --- | --- | --- | --- | --- | --- | --- | --- |
| C[C@@H]1[C@H](O)[C@@H](C)/C=C/C=C/C=C/C=C/C=C/C=C/C=C/[C@H](O[C@@H]2O[C@H](C)[C@@H](O)[C@H](N)[C@@H]2O)C[C@@H]2O[C@](O)(C[C@@H](O)C[C@@H](O)[C@H](O)CC[C@@H](O)C[C@@H](O)CC(=O)O[C@H]1C)C[C@H](O)[C@H]2C(=O)O [Amphotericin B, reference compound] | – | – | – | – | – | – | – | – | – | – | – | – | – | IC50 [1, 9]: 1.2 µM; Growth inhibition of C. glabrata on glucose IC50 ([1]; figure legends and Tables 9, 10, 13, AID 623967): significantly inhibited; IC50 [2, 10]: 0.62 µM; Growth inhibition of C. glabrata on glycerol IC50 ([2]; figure legends and Tables 9, 10, 13, AID 623965): significantly inhibited; IC50 [3, 10]: 0.26 µM; Growth inhibition of S. cerevisiae on glycerol IC50 ([3]; figure legends and Tables 9, 10, 13, AID 623969): significantly inhibited; IC50 [4, 9]: 0.38 µM; Growth inhibition of S. cerevisiae on glucose IC50 ([4]; figure legends and Tables 9, 10, 13, AID 623971): significantly inhibited |
| CCOC(=O)N1C(=O)C2(CCCCC2)N(c2ccccc2)C1=S [compound 56604821] | > 3 µM | 0.026 µM | 0.015 µM | 4.2 µM | > 3 µM | Inactive | 1.6 µM (≈ 0.532 µg/mL) | – | – | – | – | – | – | IC50 ([6]; Candida albicans, CACI2, 48 h, read-out: Growth Inhibition Activity, IC50 (μM), C. albicans (n = 3) CaCi-2): 0.2 µM |
| CCOC(=O)N1C(=O)C2(CCCCC2)N(c2ccc(C#N)cc2)C1=S [compound 56604847] | – | – | – | – | – | Inactive | < 1 µM | > 3 µM | 0.033 µM | 0.004 µM | 1.8 µM | 0.08 µM | > 3 µM | – |
| CCOC(=O)N1C(=O)C2(CCCCC2)N(c2ccc(F)cc2)C1=S [compound 56604860] | – | – | – | – | – | Inactive | – | > 3 µM | 0.011 µM | 0.004 µM | 1 µM | 0.04 µM | > 3 µM | PBS Solubility ([8]; Table 4, PBS pH 7.4 with 1% DMSO, 24 hours, room temperature): 1.1 µM |
| CCOC(=O)N1C(=O)C2(CCCCC2)N(c2ccc(Cl)cc2)C1=S [compound 56604865] | > 3 µM | 0.022 µM | 0.006 µM | 1.4 µM | > 3 µM | – | < 1 µM | – | – | – | – | – | – | IC50 ([6]; Candida albicans, CACI2, read-out: Growth Inhibition Activity, IC50 (μM), C. albicans CaCi-2, values marked ‡): 0.06 µM; IC50 ([7]; Mus musculus, NIH3T3, 48 h, read-out: Growth Inhibition Activity, IC50 (μM), 3T3 Fibroblasts (n = 1)): 22.3 µM |

— US9944607B2, “Thiohydantoin derivatives and uses thereof” (Whitehead Institute for Biomedical Research, priority 2012, dated 2018)
